Experimental findings from patent US20240294550A1, “8-OXA-3-AZABICYCLO[3.2.1]OCTANE COMPOUNDS OR SALT THEREOF, AND PREPARATION METHOD AND USE THEREOF” (LITTDD MEDICINES LTD, priority 2021, published 2024) are described below.

Data set [1] is described as follows: Equilibrium solubility in FaSSIF. The format is physicochemical. As to conditions: thermodynamic from solid; FaSSIF pH 6.5, shaken 24 hours. The protocol:
The compound powder was weighed into a volumetric flask, 450 μL of pH 6.5 FaSSIF solution was added to obtain a supersaturated suspension, the samples were vortexed for at least 2 minutes, and the volumetric flasks were shaken on a vibrating screen at 800 rpm for 24 hours, and then centrifuged at 4000 rpm for 20 minutes. The compressed filtrate was added to a HPLC system, and the concentrations were calculated by a standard curve method.

The next data set deals with ATR (Homo sapiens (Human), UniProt Q13535). Briefly: ATR kinase inhibition assay (HTRF). It counts as biochemical. The settings on record: p53 substrate, ATP 150 nM. The method, then: This experiment adopted Homogeneous time-resolved fluorescence technology (HTRF®) of Cisbio Company for assay.
Chain of ATR (Q13535 whole entry): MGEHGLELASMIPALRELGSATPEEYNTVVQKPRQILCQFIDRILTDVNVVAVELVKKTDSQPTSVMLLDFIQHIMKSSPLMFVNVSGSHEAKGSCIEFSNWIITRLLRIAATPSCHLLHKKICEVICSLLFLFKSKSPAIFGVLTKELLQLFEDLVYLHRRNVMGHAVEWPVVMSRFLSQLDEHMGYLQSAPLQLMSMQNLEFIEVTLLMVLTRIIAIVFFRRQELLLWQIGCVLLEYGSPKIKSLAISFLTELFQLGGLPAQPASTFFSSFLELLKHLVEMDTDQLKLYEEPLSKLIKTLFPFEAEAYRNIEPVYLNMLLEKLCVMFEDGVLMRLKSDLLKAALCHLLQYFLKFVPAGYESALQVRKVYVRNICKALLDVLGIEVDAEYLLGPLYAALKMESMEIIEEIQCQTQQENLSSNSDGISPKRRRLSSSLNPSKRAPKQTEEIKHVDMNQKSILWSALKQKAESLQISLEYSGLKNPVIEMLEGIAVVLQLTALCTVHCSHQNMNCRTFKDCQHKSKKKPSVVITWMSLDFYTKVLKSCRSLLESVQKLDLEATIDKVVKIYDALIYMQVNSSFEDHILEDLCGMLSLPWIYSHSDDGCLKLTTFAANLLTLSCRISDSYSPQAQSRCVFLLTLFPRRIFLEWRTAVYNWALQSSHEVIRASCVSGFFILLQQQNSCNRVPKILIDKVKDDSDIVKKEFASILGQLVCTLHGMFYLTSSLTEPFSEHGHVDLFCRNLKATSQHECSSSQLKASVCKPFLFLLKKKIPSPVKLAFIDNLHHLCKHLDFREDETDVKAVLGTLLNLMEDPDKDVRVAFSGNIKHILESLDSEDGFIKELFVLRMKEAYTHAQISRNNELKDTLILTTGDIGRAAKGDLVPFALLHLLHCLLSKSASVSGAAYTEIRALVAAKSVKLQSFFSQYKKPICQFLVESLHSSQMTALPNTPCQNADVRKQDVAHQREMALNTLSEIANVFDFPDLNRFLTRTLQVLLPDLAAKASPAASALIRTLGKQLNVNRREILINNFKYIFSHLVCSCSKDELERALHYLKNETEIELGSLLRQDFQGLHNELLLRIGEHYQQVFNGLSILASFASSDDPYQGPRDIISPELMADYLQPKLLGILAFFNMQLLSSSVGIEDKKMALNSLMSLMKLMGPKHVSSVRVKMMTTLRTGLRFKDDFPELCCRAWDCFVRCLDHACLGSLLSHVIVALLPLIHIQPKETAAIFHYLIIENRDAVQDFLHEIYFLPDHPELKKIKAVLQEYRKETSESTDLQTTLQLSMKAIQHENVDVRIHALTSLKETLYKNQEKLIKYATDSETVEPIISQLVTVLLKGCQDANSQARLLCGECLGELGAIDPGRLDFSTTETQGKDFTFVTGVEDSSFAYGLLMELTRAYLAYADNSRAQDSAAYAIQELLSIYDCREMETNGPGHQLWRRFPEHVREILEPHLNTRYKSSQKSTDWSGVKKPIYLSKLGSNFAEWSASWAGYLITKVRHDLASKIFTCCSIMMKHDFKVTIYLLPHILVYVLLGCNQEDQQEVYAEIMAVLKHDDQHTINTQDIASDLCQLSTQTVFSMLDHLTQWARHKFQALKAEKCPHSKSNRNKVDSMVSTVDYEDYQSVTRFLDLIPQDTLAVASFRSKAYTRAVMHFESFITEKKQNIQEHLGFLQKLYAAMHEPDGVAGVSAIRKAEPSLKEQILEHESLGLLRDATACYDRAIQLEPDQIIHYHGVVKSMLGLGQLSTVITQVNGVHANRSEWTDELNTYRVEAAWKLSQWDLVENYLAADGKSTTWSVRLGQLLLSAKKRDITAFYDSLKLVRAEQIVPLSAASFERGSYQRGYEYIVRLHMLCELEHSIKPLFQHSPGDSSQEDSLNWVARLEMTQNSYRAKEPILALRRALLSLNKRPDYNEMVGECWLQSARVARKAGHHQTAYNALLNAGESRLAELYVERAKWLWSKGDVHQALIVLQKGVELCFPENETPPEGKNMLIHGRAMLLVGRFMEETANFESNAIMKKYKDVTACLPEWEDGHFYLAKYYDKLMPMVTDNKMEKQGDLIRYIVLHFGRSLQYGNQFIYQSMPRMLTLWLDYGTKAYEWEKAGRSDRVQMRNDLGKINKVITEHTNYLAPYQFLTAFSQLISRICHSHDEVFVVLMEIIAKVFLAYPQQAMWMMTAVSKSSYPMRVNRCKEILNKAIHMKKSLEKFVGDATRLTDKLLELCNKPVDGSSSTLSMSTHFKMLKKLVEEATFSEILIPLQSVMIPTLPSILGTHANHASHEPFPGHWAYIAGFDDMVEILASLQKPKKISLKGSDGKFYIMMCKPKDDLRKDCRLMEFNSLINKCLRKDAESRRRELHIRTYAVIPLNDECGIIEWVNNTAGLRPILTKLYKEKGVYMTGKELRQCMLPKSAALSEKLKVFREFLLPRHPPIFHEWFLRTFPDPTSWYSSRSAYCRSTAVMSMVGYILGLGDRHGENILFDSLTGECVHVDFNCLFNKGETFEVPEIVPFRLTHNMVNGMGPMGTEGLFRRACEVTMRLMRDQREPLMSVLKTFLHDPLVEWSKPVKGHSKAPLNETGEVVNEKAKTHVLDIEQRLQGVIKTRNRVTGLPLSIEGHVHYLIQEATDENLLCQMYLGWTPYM
Chain of ATR (Q8WXE1 whole entry partner): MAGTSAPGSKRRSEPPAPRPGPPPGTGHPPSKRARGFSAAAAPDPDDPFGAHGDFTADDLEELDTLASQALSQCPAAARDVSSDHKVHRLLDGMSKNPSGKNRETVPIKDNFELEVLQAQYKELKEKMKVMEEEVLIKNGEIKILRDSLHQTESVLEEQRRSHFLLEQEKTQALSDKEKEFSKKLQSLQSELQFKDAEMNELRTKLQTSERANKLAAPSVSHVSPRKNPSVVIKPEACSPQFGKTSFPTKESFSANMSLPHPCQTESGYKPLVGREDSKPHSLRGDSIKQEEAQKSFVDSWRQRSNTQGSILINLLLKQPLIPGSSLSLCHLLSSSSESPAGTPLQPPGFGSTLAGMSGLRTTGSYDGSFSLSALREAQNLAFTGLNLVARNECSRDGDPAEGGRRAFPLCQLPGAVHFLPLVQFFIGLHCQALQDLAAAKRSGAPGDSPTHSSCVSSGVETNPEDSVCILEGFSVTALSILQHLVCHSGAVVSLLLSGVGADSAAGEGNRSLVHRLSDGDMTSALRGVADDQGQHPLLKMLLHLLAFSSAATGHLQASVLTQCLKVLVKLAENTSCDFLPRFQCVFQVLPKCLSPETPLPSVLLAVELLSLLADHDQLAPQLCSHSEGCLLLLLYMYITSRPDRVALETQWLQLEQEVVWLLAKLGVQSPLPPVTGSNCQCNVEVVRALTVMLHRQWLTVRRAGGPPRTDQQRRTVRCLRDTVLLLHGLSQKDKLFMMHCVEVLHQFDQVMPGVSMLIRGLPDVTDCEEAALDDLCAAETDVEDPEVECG
Experiment method: buffers were prepared as follows:
Preparation of solutions of the test compounds: The example compounds shown in the table below were prepared into solutions using DMSO as solvent, the stock solution typically being 10 mM. The maximum starting concentration in this experiment was 3 μM, DMSO 3-fold serial dilutions for concentrations, the serially diluted solution was added to each well of the corresponding 384-well plate (geriner bio-one, Cat #784075) to give final concentrations of 3000, 1000, 333, 111, 37, 12.3, 4.12, 1.37, 0.457, 0.152 nM, respectively, and the corresponding amount of DMSO was added to the additional wells to be used as negative or positive control wells, respectively.
The enzyme and substrate were separately dissolved and diluted in two tubes with the buffer prepared above at the following concentrations:
5 μL of the ATR protein solution from tube A was added to the compound-containing wells and the negative control wells in the assay plates using an electric multichannel pipettor, and the same volume of the prepared buffer (medium only, no enzyme) was added to the positive control wells. The plates were centrifuged for one minute at 1000 rpm, and then placed in an incubator at 25° C. for 15 minutes. 5 μL of the substrate mix solution from tube B was added to the positive control well, negative control well and the compound-containing well of the assay plates in the same manner, centrifuged and incubated at 25° C. for 90 minutes.
During the reaction, after ATR phosphorylated the substrate p53, two antibodies were added. Among them, anti-phospho-p53-Eu, as an energy donor, can specifically bind to the phosphorylation site of p53, while anti-GST-d2, as an energy receptor, can specifically bind to the GST-tagged p53. Upon excitation by a laser with certain wavelength (the excitation wavelength in this experiment is 340 nm), the energy donor can emit emission light of 615 nm, and when the energy donor and the energy receptor are close enough in space (that is, two antibodies are connected to p53 at the same time), energy transfer can occur between the energy donor and the energy receptor, so that the energy receptor can emit emission light of 665 nm. The two emission lights were detected by a plate reader, and the ratio of the signals at 665 nm and 615 nm was calculated. The IC50 of the samples tested can be obtained by plotting and calculation.
10 μL per well of the detection solution was added to the positive control, negative control and compound wells of the assay plate using an electric multichannel pipette, centrifuged and incubated overnight at 4° C., and read with the plate reader Envision 2104.
Compound inhibition rate was calculated using interpolation. The mean values of the positive and negative controls were calculated respectively, and the following formula was used to calculate the inhibition rates of the compounds:
Inhibition rate Minimum response+(Compound concentration ^Curve slope)*(Maximum response−Minimum response)/(Compound concentration^Curve slope+Half inhibition concentration ^Curve slope)
The IC50 value of each compound to enzyme activity was obtained.

Data set [2] can be described thus: Pharmacokinetic (PK) assay in mice. The format is in vivo. The settings on record: CD-1 mice; for AUC(0-t): read-out: AUC0-24 h. The method, then:
The PK of each compound was determined as follows: 6 CD-1 mice (obtained from Shanghai Lingchang Biotechnology Co., Ltd.) were divided into two groups, 3 mice in each group. […] Blood samples were collected from saphenous vein of lower leg in each group at 0, 0.083, 0.25, 0.5, 1, 2, 4, 6, 8 and 24 h after administration. Approximately 40 μL of the blood samples were collected in anticoagulant tubes containing EDTA-K2. Immediately after collection, the tubes were inverted at least 5 times to ensure adequate mixing, and then placed on ice. The blood samples collected at each time point were centrifuged at 4° C., 8000 rpm for 5 minutes to obtain plasma. Another 1.5 mL centrifuge tube was marked with the compound name, animal number, and time point, and the plasma was transferred to this tube. The plasma was stored at −80° C. until analysis.
Compound concentrations in plasma were determined by UPLC-MS/MS method, and the pharmacokinetic parameters were calculated by Phoenix WinNolin 6.4 pharmacokinetic software on the obtained data.

The next data set deals with LOVO cells. Briefly: Cell proliferation assay (CellTiter-Glo). The format is cell-based. The settings on record: Homo sapiens, 96 hours. The protocol:
The cell proliferation inhibition effect of the compound of the invention was tested using CellTiter-Glo™ cell viability assay kit. This kit uses luciferase as the detector. During the luminescence process, the luciferase requires the participation of ATP. CellTiter-Glo™ reagent was added to the cell culture medium, and the luminescence value was measured. The light signal is proportional to the amount of ATP present in the system, and ATP positively correlates with the number of viable cells present, thus the cell proliferation activity is measured.
Cell culture and seeding: LOVO cells in logarithmic growth phase (human colon carcinoma cells) (ATCC CCL-229) were harvested and counted using a platelet counter. Trypan blue exclusion method was used to detect the cell viability to ensure that the cell viability was above 90%. 90 μL of cell suspension (RPMI1640+10% fetal bovine serum) was added to a 96-well transparent flat-bottom black-wall plate (Thermo, 165305) respectively, and the cell concentration was adjusted to 3000/well/90 μl. Cells in the 96-well plate were incubated overnight at 37° C., 5% CO2 with 95% humidity (Thermo, Model 3100 Series).
Firstly, DMSO was used as the solvent to prepare 10 mM mother solution of the test compounds, and then PBS was used to dilute 100 times to prepare a solution of 10 times of final concentration, the highest concentration was 100 μM. 10 μL solution of the test compounds was added to each well of the 96 well plate inoculated with cells, namely the solution was further diluted 10 times to reach the final concentration of 10 μM. Starting from 10 μM, the final concentration of the test compound was 3-fold serially diluted, with 9 concentrations in total with 3 triplicates for each concentration. The 96 well plates with the test compounds and cells were incubated at 37° C., 5% CO2 and 95% humidity for 96 hours, and then CellTiter Glo analysis was performed.
CellTiter-Glo Reagents (CellTiter Glo R Luminescent Cell Viability Assay, Promega, G7572) were melted and the 96-well plates were equilibrated to room temperature for 30 minutes. An equal volume of CellTiter-Glo solution was added to each well, and the cells were lysed by shaking on the fixed orbit shaker for 5 minutes. The assay plates were left at room temperature for 20 minutes to stabilize the luminescence signal, and the luminescence signals were read using the SpectraMax multi-labeled microplate detector (MD, M3).
Data were analyzed using GraphPad Prism 7.0 software, fitted with non-linear S-curve regression to derive the dose-response curves, and IC50 values were calculated therefrom.
Cell survival rate (%)=(LumDrug to be tested−LumCulture medium control)/(LumCell control−LumCulture medium control)×100%
For orientation: Cellular ATP, detected with luciferase, serves as a proxy for viable cell number.

In brackets after ≈: the same amount, converted by molar mass. Like-named read-outs stand apart in the source and are kept apart here.

Broadly, the solubility is the concentration that dissolves in the medium under given conditions. What is called IC50 is the concentration needed to halve the response being measured. A low value points to greater potency in that assay. In general, half-life refers to how long it takes for the measured level to halve. Low values mean fast loss, high ones slow loss. As a reminder, the bioavailability is the share of a dose that reaches the circulation, judged against a reference dose that is usually intravenous. A higher bioavailability goes with much systemic uptake. What is called Cmax is the maximum level reached in the sampled fluid or tissue. `C[C@@H]1COCCN1c1cc(N2CC3CCC(C2)O3)nn2c(-c3cc[nH]n3)ncc12` [Example 3, 3-(4-((R)-3-methylmorpholino)-7-(1H-pyrazol-3-yl)imidazo[1,5-b]pyridazin-2-yl)-8-oxa-3-azabicyclo[3.2.1]octane] gave a solubility at 24 h in data set [1] of 1140 µg/mL (≈ 2890 µM). In addition, the IC50 came to 5.9 nM at ATR and 67 nM with LOVO cells. The CL_obs in data set [2] (IV dose 1 mg/kg) worked out at 10.0 mL/min/kg. Besides, the half-life is 7.56 h in data set [2] (mouse, plasma, IV dose 1 mg/kg) and 3.99 h in data set [2] (mouse, plasma, Po dose 5 mg/kg). For the same compound, in data set [2] (mouse, plasma, IV dose 1 mg/kg, read-out: Vss), the Vd was found to be 1.03 L/kg. In data set [2] (mouse, plasma, Po dose 5 mg/kg vs IV dose 1 mg/kg), this compound registered a bioavailability of 77.5%. Moreover, the C0 in data set [2] (mouse, IV dose 1 mg/kg, plasma) came out at 2860 ng/mL. For the same compound, the AUC(0-t) in data set [2] (mouse, IV dose 1 mg/kg, plasma) was 1650 ng·h/mL; in data set [2] (mouse, Po dose 5 mg/kg, plasma), 6460 ng·h/mL. The same compound gave a Cmax in data set [2] (mouse, Po dose 5 mg/kg, plasma) of 3150 ng/mL.
